Measurements published in US9072729B2, “Method for treating fibrosis and cancer with imidazolium and imidazolinium compounds” (Agency for Science, Technology and Research, priority 2008, dated 2015).

System: survivin in HLE cells
Test: Survivin translocation assay (HCS)
Type: cell-based, human
Settings: 24 hr
Experimental: FIG. 25. DBZIM induced nucleus to cytoplasm translocation of survivin protein. (A) Representative immunocytostaining images of HLE cells treated by DBZIM (0 and 1.0 mM) for 24 hr. Arrows indicate the accumulation and the disappearance of survivin in the nucleus of the control and the DBZIM-treated cells, respectively. The images were acquired and analyzed using ArrayScan VTI HCS reader (Thermal Scientific, PA, USA) and Target Activation BioApplication software. (B) Quantitation of translocation event. Cells were grown in 96-well plate and treated by DBZIM of various concentrations for 24 hr before fixation and immunocytostaining for survivin. Lower value in “Cytoplasmic-Nuclear Difference” indicated a lower amount of cytoplasmic survivin.
HLE cells cultured in 96-well plate were treated with DBZIM for 24 hr before staining and imaging. Cells were then fixed and stained with antibodies against […] and Survivin. (Lab Vision Corp. CA, USA) and buffer reagent from Hitkit (Thermo Scientific, IL, USA). The cells were imaged and analyzed on ArrayScan VTI HCS reader (Thermal Scientific, PA, USA). Fluorescence intensity in the cytoplasmic and nuclear area was plotted for indication of cytoplasm to nucleus translocation.

Q: With `[Br-].c1ccc(Cn2cc[n+](Cc3ccccc3)c2)cc1` [DBZIM, 1,3-bisbenzylimidazolium bromide] as the compound, how does the survivin translocation read?
A: translocated from the nucleus to the cytoplasm
